Laboratory results: publication PMC13254586, “C-terminal dimerization motifs control asynchronous chain elongation during modular polyketide biosynthesis [drawing 1]” (The Journal of Biological Chemistry, 2026)

Key:
LM-M1-DD = biological target: T1, LM-M1-DD (Amycolatopsis mediterranei, UniProt O54666); assay: LC-MS/MS-MRM of hydrolysed diketide, single turnover; type: biochemical; conditions: ATP/Mg2+, racemic MeMal-CoA, pH 7.3, room temperature
T1 construct: gene rifA; RIFS loading module plus module 1 bimodule (A-CP, KS-AT-DH0-KR-CP) with C-terminal docking domain (DD) of the erythromycin synthase; holo form, E. coli BAP1; Ni-NTA purified; homodimer

M1-DD = biological target: T2, M1-DD (Amycolatopsis mediterranei, UniProt O54666); assay: cryo-EM structure; type: binding; conditions: covalent on CP Ser1538; Ppant occupies KS active site tunnel; elongation mode; 3.22 Å; Fab 1B2 bound
T2 construct: gene rifA; RIFS module 1 (KS-AT-DH0-KR-CP) with N- and C-terminal docking domains of the erythromycin assembly line, C-terminal His6; holo form, E. coli BAP1; homodimer

LM-M1-TEII° = biological target: T3, LM-M1-TEII° (Amycolatopsis mediterranei, UniProt O54666); assay: LC-MS/MS-MRM of hydrolysed diketide, single turnover; type: biochemical; conditions: ATP/Mg2+, racemic MeMal-CoA, NADPH; pH 7.3; room temperature
T3 construct: gene rifA; holo form, E. coli BAP1; homodimer

T1 sequence (O54666 1-2179 limits assumed): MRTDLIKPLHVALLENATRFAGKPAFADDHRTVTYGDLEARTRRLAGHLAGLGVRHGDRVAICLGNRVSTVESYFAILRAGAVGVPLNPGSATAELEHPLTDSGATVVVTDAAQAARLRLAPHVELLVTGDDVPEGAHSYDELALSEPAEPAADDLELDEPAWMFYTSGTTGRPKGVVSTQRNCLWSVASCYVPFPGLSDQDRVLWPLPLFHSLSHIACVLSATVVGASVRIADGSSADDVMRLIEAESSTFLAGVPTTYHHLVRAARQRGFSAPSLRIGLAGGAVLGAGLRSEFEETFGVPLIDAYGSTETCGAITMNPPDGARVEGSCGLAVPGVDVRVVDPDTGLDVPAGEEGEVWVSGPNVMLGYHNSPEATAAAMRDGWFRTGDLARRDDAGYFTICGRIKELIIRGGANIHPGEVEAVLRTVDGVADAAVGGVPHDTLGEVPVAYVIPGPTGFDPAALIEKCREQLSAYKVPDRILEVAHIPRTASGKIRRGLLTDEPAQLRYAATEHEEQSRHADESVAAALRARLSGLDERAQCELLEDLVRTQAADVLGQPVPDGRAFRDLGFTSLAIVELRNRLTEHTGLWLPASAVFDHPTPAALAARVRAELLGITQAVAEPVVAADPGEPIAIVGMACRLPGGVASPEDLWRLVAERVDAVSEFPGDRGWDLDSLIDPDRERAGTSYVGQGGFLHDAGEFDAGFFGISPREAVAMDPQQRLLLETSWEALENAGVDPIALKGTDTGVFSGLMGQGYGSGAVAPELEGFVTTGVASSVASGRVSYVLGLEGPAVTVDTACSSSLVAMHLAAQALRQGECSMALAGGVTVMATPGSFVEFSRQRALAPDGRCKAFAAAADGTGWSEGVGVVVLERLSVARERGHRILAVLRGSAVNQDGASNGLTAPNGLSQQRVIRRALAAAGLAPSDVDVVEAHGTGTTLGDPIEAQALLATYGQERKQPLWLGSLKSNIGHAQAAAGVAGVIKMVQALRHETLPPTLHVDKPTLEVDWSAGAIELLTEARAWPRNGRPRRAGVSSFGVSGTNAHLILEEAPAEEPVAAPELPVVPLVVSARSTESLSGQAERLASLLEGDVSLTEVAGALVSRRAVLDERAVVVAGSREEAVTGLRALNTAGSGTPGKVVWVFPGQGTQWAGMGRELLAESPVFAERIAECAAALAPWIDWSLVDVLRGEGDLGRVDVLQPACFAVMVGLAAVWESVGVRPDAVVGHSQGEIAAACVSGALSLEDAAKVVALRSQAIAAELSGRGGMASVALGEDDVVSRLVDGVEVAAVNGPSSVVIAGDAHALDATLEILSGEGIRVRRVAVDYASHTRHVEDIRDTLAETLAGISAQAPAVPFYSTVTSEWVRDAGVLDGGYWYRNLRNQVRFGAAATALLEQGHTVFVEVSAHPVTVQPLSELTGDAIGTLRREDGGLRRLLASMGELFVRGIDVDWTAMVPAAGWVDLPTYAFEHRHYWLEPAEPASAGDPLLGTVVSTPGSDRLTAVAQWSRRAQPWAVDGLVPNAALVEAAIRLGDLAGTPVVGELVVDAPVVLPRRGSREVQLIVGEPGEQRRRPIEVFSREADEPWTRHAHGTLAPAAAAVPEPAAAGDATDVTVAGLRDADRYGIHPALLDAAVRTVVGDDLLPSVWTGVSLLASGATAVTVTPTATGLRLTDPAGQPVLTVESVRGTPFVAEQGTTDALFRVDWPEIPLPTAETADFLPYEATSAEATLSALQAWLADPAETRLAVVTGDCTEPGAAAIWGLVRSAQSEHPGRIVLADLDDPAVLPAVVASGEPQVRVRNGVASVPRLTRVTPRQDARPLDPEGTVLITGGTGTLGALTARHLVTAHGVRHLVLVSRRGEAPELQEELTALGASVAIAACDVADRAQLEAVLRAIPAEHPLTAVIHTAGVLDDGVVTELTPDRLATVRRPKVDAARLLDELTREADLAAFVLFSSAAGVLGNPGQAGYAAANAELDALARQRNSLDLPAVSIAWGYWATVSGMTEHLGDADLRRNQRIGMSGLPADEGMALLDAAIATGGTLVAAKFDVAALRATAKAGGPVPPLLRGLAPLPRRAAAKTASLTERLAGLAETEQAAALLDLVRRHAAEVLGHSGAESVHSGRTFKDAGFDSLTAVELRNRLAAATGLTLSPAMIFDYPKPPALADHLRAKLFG
T2 sequence (O54666 631-2179): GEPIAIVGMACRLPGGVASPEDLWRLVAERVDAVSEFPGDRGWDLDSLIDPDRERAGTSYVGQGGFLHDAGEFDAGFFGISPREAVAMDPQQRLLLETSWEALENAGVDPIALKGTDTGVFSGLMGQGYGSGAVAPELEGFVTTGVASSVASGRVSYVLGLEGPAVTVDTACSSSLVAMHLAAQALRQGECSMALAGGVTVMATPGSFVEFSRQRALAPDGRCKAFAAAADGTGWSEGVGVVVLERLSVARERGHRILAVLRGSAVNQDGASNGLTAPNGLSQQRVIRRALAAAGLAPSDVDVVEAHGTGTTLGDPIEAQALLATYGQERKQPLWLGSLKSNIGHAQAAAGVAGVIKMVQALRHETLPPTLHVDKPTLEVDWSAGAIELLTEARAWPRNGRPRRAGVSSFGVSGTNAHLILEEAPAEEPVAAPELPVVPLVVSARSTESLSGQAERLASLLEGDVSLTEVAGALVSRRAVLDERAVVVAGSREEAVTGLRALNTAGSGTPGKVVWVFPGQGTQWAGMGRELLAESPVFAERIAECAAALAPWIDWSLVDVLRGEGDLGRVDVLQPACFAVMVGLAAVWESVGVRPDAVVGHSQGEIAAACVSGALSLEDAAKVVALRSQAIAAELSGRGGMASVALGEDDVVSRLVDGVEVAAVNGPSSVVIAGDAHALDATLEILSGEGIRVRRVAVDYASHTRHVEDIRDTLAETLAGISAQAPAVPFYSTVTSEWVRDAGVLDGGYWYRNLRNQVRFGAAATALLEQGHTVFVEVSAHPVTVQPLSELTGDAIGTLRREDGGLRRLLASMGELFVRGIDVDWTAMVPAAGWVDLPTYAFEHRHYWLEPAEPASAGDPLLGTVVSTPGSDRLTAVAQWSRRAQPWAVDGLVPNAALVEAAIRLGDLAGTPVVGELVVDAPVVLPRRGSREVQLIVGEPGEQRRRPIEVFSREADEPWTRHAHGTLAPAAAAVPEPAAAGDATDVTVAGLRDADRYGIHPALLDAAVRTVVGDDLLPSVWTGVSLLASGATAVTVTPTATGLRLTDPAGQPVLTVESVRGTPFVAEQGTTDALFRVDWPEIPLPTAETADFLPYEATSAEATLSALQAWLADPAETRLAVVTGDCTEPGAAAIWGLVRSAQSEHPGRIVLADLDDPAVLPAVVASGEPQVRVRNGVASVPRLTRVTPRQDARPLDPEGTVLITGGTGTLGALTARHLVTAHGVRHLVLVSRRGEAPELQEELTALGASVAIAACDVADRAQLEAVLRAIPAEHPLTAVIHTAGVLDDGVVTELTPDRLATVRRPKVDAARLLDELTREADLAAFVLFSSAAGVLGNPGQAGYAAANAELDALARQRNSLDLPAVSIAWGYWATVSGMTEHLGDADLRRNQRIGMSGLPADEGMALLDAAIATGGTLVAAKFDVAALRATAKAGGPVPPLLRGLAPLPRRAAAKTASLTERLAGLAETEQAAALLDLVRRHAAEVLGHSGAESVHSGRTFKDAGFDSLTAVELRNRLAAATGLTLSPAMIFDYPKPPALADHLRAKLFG

Structure (SMILES): NC(=O)C1=CN([C@@H]2O[C@H](COP(=O)(O)OP(=O)(O)OC[C@H]3O[C@@H](n4cnc5c(N)ncnc54)[C@H](OP(=O)(O)O)[C@@H]3O)[C@@H](O)[C@H]2O)C=CC1 [NADPH]
- LC-MS/MS-MRM of hydrolysed diketide, single turnover (LM-M1-DD; 1 mM NADPH present or absent, benzoate): expected time- and NADPH-dependent accumulation of hydrolyzed keto-d2

Structure (SMILES): CC(C)(COP(=O)(O)O)[C@@H](O)C(=O)NCCC(=O)NCCS [4′-phosphopantetheine]
- cryo-EM structure (M1-DD): within the KS active site tunnel occupied by the Ppant cofactor

Structure (SMILES): O=C(O)c1ccccc1 [benzoate]
- LC-MS/MS-MRM of hydrolysed diketide, single turnover (LM-M1-TEII°): both LM-M1-DD and LM-M1-TEII° were catalytically active
- LC-MS/MS-MRM of hydrolysed diketide, single turnover (LM-M1-DD; NADPH): both LM-M1-DD and LM-M1-TEII° were catalytically active
